Legend:
Assay type in all cases: physicochemical
[1] = Real-time storage stability under ambient laboratory conditions, HPLC comparison with freshly prepared material
Description: (§1) Chromatographic analyses were conducted on a Waters Breeze system equipped with a Waters 1525 Binary HPLC pump, 717plus Autosampler, 2487 Dual I Absorbance Detector and column heater employing a Zorbax Extend-C-18 Column (4.6×250 mm; 5 micron, 80 A). Separation occurred using a linear gradient elution according to the following table wherein eluant A consisted of 0.1% TFA in water and eluant B consisted of 0.1% TFA in acetonitrile.
(§2) Injection samples were prepared in water/1N NaOH/acetonitrile diluent (59:1:40) with analyte peaks detected at 230 nm. Analyte peaks associated with the pamoate salts were assayed against standard solutions prepared from liothyronine and levothryroxine.
The HPLC methodology was applied to freshly prepared samples of T3-pamoate and T4 pamoate and the resulting chromatograms compared with chromatograms of the materials after a four-year real-time storage under ambient laboratory conditions. Further, the pamoate salts were evaluated under forced degradation conditions to evaluate the effects of heat and moisture on the salts' chemical and thermal stability. Blank injections of the sample diluent were obtained at each time interval to determine if minor response differences observed were attributable to the diluent and the chromatographic system (eluant) or to real impurities within either liothyronine pamoate or levothyroxine pamoate. […]

[2] = Forced degradation as suspension in USP water at about 60° C., HPLC
Description: as §1, §2
The HPLC methodology was applied to freshly prepared samples of T3-pamoate and T4 pamoate and the resulting chromatograms compared with chromatograms of the materials after a four-year real-time storage under ambient laboratory conditions. Further, the pamoate salts were evaluated under forced degradation conditions to evaluate the effects of heat and moisture on the salts' chemical and thermal stability. Blank injections of the sample diluent were obtained at each time interval to determine if minor response differences observed were attributable to the diluent and the chromatographic system (eluant) or to real impurities within either liothyronine pamoate or levothyroxine pamoate.
To accelerate the potential degradation of levothyroxine pamoate and liothyronine pamoate, samples of each were individually placed in at least an 100 fold excess by weight USP water to form a suspension. The mixture was not degassed and heating was initiated to about 60° C. Multiple samples at each time point were obtained and analyzed from the mixture to assure a representative sample was obtained. FIG. 16 is an HPLC chromatogram of levothyroxine pamoate after subjection to this forced degradation condition for about 98 hours and is indicative of the unexpected stability associated with the organic acid addition salt. […]

Water solubility = assay: Water solubility
Hygroscopicity = conditions: compared with sodium or alkali metal salts of the thyroid hormones

Row | Compound | Amount of degradation impurity at retention time 25-26 minutes ([1]; extended storage, about four years at ambient laboratory conditions) | Decomposition under forced degradation (late eluting peak, retention time about 25-26 minutes) ([2]; aqueous environment at 60° C. for 148 hours) | Amount of degradation impurity at retention time 25-26 minutes ([2]; forced degradation, aqueous environment at 60° C. for 148 hours) | Water solubility (Water solubility) | Hygroscopicity (Hygroscopicity) | HPLC chromatogram after extended storage compared with freshly prepared material ([1]; about four years, ambient laboratory conditions 18-25° C., amber glass jars, detection 230 nm) | HPLC chromatogram after forced degradation compared with freshly prepared material ([2]; suspension in at least 100 fold excess USP water, not degassed, about 60° C., about 98 hours)
1 | N[C@@H](Cc1cc(I)c(Oc2ccc(O)c(I)c2)c(I)c1)C(=O)O.N[C@@H](Cc1cc(I)c(Oc2ccc(O)c(I)c2)c(I)c1)C(=O)O.O=C(O)c1cc2ccccc2c(Cc2c(O)c(C(=O)O)cc3ccccc23)c1O [liothyronine pamoate] | only a minor amount of the impurity | exhibited some decomposition | significant |  |  |  | 
2 | N[C@@H](Cc1cc(I)c(Oc2cc(I)c(O)c(I)c2)c(I)c1)C(=O)O [levothyroxine sodium, reference compound] |  |  |  | water-soluble | sufficient hygroscopic characteristics |  | 
3 | levothyroxine pamoate |  |  |  | insoluble |  | essentially identical | essentially identical

Reference: US7858663B1, “Physical and chemical properties of thyroid hormone organic acid addition salts” (Pisgah Laboratories, Inc., priority 2007, dated 2010)
